From publication PMC10856407, “Polymer Nanoparticles with 2-HP-β-Cyclodextrin for Enhanced Retention of Uptake into HCE-T Cells” (Molecules, 2024)

Experiments:
[1] = system: HCE-T cells; conditions: sodium azide 1 mg·mL^−1, 1 h pre-incubation, 4 h uptake, NPs 20 μg·mL^−1, p < 0.01
Method: HCE-T cells were seeded at a density of 1 × 10^5 cells·well^−1 in a six-well plate, and the culture medium was discarded when the cell density reached 80%. […] Then, fluorescently labeled nanoparticles were added for a final concentration of 20 μg·mL^−1. After continuing the uptake experiment for 4 h, the fluorescently labeled nanoparticle solution was discarded, washed three times with PBS, and digested using trypsin. The cells were blown out with serum cultures, collected, and centrifuged at 1000 rpm. The supernatant was aspirated to remove the fluorescent material adsorbed on the cell surface. Finally, 0.3 mL of the cells suspended in PBS were transferred into flow tubes and assayed using flow cytometry (BD FACSCanto II, Becton, Dickinson and Company, New York, NY, USA). The fluorescence intensity was quantified by collecting 10,000 cells, and X-means were used for comparing the differences in cell uptake between the groups.

[2] = system: HCE-T cells; experiment: Endocytic transport mechanism in nanoparticle uptake (endocytosis inhibitors, flow cytometry); type: cell-based, human; conditions: EIPA 100 μM, Chlorpromazine 30 μM, Nystain 30 μM, p < 0.01
Method: The main nanoparticle entry processes involve the clathrin structure, caveolin/lipid raft structure, and macropinocytosis. The experiment was conducted by separately adding different endocytosis transport inhibitors to examine the degree of action during nanoparticle uptake. The clathrin structural inhibitor Chlorpromazine (30 μM), the caveolin/lipid raft structure inhibitor Nystain (30 μM), and the macropinocytosis inhibitor derivative amiloride (EIPA, 100 μM) were added seperately. […] Serum-free cultures of varying endocytotic transport inhibitors were inspected using the method described above (Study of Active Transport Mechanism in Nanoparticle Uptake by HCE-T Cells).

Row | Molecule | inhibition of HCE-T cell uptake of (2-HP-β-CD)/PLGA NPs [2] [%] | other results
1 | [N-]=[N+]=[N-].[Na+] [sodium azide] | – | reduction of uptake of (2-HP-β-CD)/PLGA NPs [1]: 60.0%
2 | Nystain | 38.3 | –
3 | CN(C)CCCN1c2ccccc2Sc2ccc(Cl)cc21 [Chlorpromazine] | – | inhibition at 30 µM ([2]; Homo sapiens, read-out: inhibition of HCE-T cell uptake of (2-HP-β-CD)/PLGA NPs): 46.4%
4 | CCN(c1nc(N)c(C(=O)N=C(N)N)nc1Cl)C(C)C [EIPA, 5-(N-ethyl-N-isopropyl) amiloride] | 53.3 | –
